{
  "source": "patent EP1944295A1",
  "about": "“Non-racemic mixtures of (R)-N-piperidinyl-5-(4-chlorophenyl)1-(2,4-dichlorophenyl)-4,5-dihydro-1H-pyrazole-3-carboxamide and (S)-N-piperidinyl-5-(4-chlorophenyl)-1-(2,4-dichlorophenyl)-4,5-dihydro-1H-pyrazole-3-carboxamide” (Laboratorios del Dr. Esteve S.A., priority 2007, dated 2008)",
  "key": {"Plasma leptin assay": {"experiment": "Plasma leptin assay", "format": "in vivo, female Wistar rats", "conditions": "obese rats", "experimental": "(§1) The experiment was performed on female Wistar rats (originally in the weight range 250-300 g). The rats were housed in pairs in polypropylene cages with solid floors and sawdust bedding at a temperature of 21±4°C and 55±20% humidity. Animals were maintained on a reverse phase light-dark cycle (lights off for 8 h from 09.30-17.30 h) during which time the room was illuminated by red light. Animals had free access to powdered high fat diet (VRF1 plus 20% lard), ground chocolate, ground peanuts and tap water at all times. The three different diets were contained in separate glass feeding jars with aluminum lids with a 3-4 cm hole cut in it to allow access to the food. Animals were housed in pairs for twelve weeks for the induction of obesity. Animals were then housed singly in polypropylene cages with wire grid floors to enable the food intake of each rat to be recorded. […] Animals were accustomed to these new conditions (individual housing and the wire-grid floor cages) for at least 14 days before the start of the baseline readings. […]\nPlasma leptin concentration was determined using Assay Designs rat leptin enzyme immunometric assay kits (Cat No. 900-015) according to the manufacturer's regular protocol. […] Optical density at 450 nm was determined using a Molecular Devices VERSAmax tunable microplate reader and readings transferred to GraphPad Prism. […]"}, "Plasma NEFA assay": {"experiment": "Plasma NEFA assay", "format": "in vivo, female Wistar rats", "conditions": "30 mg/kg po once daily for 28 days, obese rats", "experimental": "as §1, with “Animals were housed in pairs for twelve weeks for the induction of obesity.” left out\nNon-esterified (or free) fatty acids (NEFA) were determined by modification of a commercial clinical analyser assay kit (Wako NEFA C ACS-ACOD method) to a 96-well format. […] After exactly 10 minutes, 150 µl of reagent B was added and the plate incubated for a further 10 minutes after which optical density at 540 nm was determined using a Molecular Devices VERSAmax tunable microplate reader. […]"}, "[1]": {"experiment": "Determination of carcass fat content (Soxhlet)", "format": "in vivo, female Wistar rats", "conditions": "obese rats, g per rat", "experimental": "as §1\nPercentage fat in the freeze-dried sample was calculated as follows: % fat = [100×(final cup weight-initial cup weight)]/sample weight [formula]\nPercentage fat in the original sample was calculated using the % water as follows: % fat in original sample = % fat × [(100-% water)/100] […]"}, "rat CB1 receptors": {"target": "T1, rat CB1 receptors (Rattus norvegicus, UniProt P20272)", "T1 construct": "cerebella from male Wistar rats (250-300g) were carefully dissected on ice and homogenates were prepared; from tissue; host or cells: rat cerebellum membranes (male Wistar rats)", "T1 sequence (P20272 whole entry)": "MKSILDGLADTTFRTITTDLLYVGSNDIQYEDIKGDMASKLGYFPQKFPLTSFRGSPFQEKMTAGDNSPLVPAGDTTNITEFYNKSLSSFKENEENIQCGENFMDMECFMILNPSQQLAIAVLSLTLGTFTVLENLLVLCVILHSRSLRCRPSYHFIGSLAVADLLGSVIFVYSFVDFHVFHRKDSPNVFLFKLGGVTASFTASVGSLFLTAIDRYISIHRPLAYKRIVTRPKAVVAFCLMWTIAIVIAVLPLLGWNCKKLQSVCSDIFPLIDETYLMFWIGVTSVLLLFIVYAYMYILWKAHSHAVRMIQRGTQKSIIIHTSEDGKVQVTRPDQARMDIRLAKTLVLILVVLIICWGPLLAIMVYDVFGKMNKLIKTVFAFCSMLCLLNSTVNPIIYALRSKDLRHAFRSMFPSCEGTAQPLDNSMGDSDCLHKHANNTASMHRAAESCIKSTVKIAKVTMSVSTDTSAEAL", "experiment": "Binding affinity to CB1 receptor, competitive binding with [3H]-CP 55,940 in rat cerebellum membranes", "experimental": "Binding affinity to CB1 receptor was evaluated according to the method of Govaerts et al (2004) with the following modifications. Briefly, cerebella from male Wistar rats (250-300g) were carefully dissected on ice and homogenates were prepared in cold 50 mM Tris-HCl, 5 mM MgCl2, 1 mM EDTA, 0.25 M sucrose, pH 7.4 with a Potter-Heljheim homogeniser and the suspension was centrifuged at 1,000 x g for 5 minutes. The supernatants were collected and centrifuged at 50,000 x g for 15 min. The resulting pellets were resuspended in Tris-HCl buffer without sucrose, homogenized and incubated for 15 min at 37°C in an orbital shaker bath and centrifuged again at 50,000 x g for 15 min. Pellets were weighed, resuspended in Tris-HCl buffer without sucrose, homogenized with an Ultraturrax homogeniser at 13,500 rpm for 3 x 5 seconds and aliquoted in 0.9 ml volumes in Eppendorf tubes. Aliquots were centrifuged at 20,800 x g for 5 minutes, supernatants discarded and pellets were frozen at -80°C until use. Total protein concentration was determined using a Bio-Rad commercial assay base on the Lowry method. Competitive binding experiments were performed in presence of 1 nM [^3H]-CP 55,940 in siliconized glass tubes containing 100 µg protein/tube resuspended in 1 ml final volume of 50 mM Tris-HCl, 5 mM MgCl2, 1 mM EDTA, 0.5% (w/v) bovine serum albumin, pH 7.4. Competitors were present at various concentrations and the non-specific binding was determined in the presence of 10 µM HU-210. After 1 hour incubation at 30°C, the suspension was rapidly filtered through 0.5% PEI pre-treated GF/B fiber filters on a 96-well harvester and washed 3 times with 3ml ice-cold binding buffer without bovine serum albumin. Radioactivity on filters was measured with Wallac Winspectral 1414 counter by liquid scintillation in 6 ml Ecoscint H (National Diagnostics, U.K.). Assays were made in triplicate.\nBinding data were analyzed by non-linear regression with the software GraphPad Prism Version 3.03."}, "[2]": {"experiment": "Feeding study: body weight of obese rats with access to highly palatable cafeteria diet", "format": "in vivo, female Wistar rats", "conditions": "after 28 days of treatment, dietary-induced obese rats", "experimental": "(§2) The experiment was performed on female Wistar rats (originally in the weight range 250-300 g). The rats were housed in pairs in polypropylene cages with solid floors and sawdust bedding at a temperature of 21±4°C and 55±20% humidity. Animals were maintained on a reverse phase light-dark cycle (lights off for 8 h from 09.30-17.30 h) during which time the room was illuminated by red light. Animals had free access to powdered high fat diet (VRF1 plus 20% lard), ground chocolate, ground peanuts and tap water at all times. The three different diets were contained in separate glass feeding jars with aluminum lids with a 3-4 cm hole cut in it to allow access to the food. Animals were housed in pairs for twelve weeks for the induction of obesity. Animals were then housed singly in polypropylene cages with wire grid floors to enable the food intake of each rat to be recorded. Polypropylene trays with cage pads were placed beneath each cage to detect any food spillage. Animals were accustomed to these new conditions (individual housing and the wire-grid floor cages) for at least 14 days before the start of the baseline readings.\n(§3) Approximately a week before the start of the study, animals were weighed (to the nearest 0.1 g using an electronic top-pan balance) and allocated into […], each containing 9-10 animals. Following a 7 day baseline run-in period, during which the animals were dosed by the appropriate route (eg orally) once a day with vehicle (0.5% hydroxy-propyl-methylcellulose [HPMC]; 1 ml/kg) or the test drug, ie COMPOUND A (10 and 30 mg/kg po) and COMPOUND B (10 and 30 mg/kg po) once daily for 28 days.\nFood intake and body weight were measured once daily. Variations in body weight and energy levels of the different types of food were accounted for by expressing the food intake results in terms of kJ/kg rat weight.\nStatistical comparisons between the body weights and daily food intakes of the different treatment groups have been made by analysis of covariance followed by Dunnett's test to compare each treatment group with the vehicle-treated controls. For the body weight data (body weights each day), the weights of the animals on Day 1 (ie immediately before the first drug treatment) were used as the covariate. Thus, means were adjusted for differences in body weight between the groups on Day 1 and standard errors of the mean (SEM) were calculated from the residuals of the statistical model. All mean body weight values on Day 1 are identical (and SEM are therefore zero) because the analysis of covariance adjusts them all to equal the 'grand mean' of the values of this day."}, "[3]": {"experiment": "Plasma glycerol and triacylglycerol assay", "format": "in vivo, female Wistar rats", "conditions": "obese rats, vs vehicle; for reduction of plasma glycerol levels / reduction of plasma triacylglycerol concentrations: 30 mg/kg po once daily for 28 days", "experimental": "as §2, §3\nTerminal blood samples via cardiac puncture were taken from the animals immediately after death into Sarstedt 4.5 ml lithium-heparin tubes (Cat No. 32.331). Tubes were then centrifuged at 1,500 g for 5 minutes at 4°C and the plasma removed and immediately frozen on dry ice (as 3 aliquots per sample in sealed Eppendorf tubes). Plasma samples were stored at -75°C until required for analysis. All determinations were performed on plasma samples that had been thawed only once.\nPlasma triacylglycerol was determined by modification of a discrete assay kit (Sigma Triglyceride determination kit, Cat No. TR0100) to a 96-well format. The kit actually determines liberated glycerol following enzymic hydrolysis of triacylglycerol to free fatty acids and glycerol (1 mole glycerol per mole of triacylglycerol). For this reason, correction for the glycerol concentration originally present in the plasma is required. Plasma samples were, therefore, assayed in the absence (free plasma glycerol) or presence (total triacylglycerol) of lipoprotein lipase. Subtraction of free glycerol from total triacylglycerol concentration then derives the true triacylglycerol concentration.\nA 2.5 mg/ml triolein equivalent glycerol standard was obtained from Sigma. The supplied Sigma mM conversion factor for this batch was 1.13 (ie 2.83 mM glycerol). A 10 mg/ml glycerol stock solution was prepared in saline and then diluted in saline to create a series of standard concentrations from 0.218 to 4.34 mM. Standards and plasma samples (undiluted) were pipetted into the 96-well plates as 10 µl additions in duplicate. Assay plates and reagents were preheated at 37°C and the reaction started by adding 200 µl of either the glycerol or total triacylglycerol reagent (reconstituted as per manufacturer's protocol) followed by incubation at 37°C for 5 minutes after which optical density at 540 nm was determined using a Molecular Devices VERSAmax tunable microplate reader. Optical density readings were then transferred to GraphPad Prism and unknown values extrapolated from a linear regression fit to the standard curve. The assay was linear up to the highest glycerol standard employed (4.34 mM). Subtraction of the glycerol concentration in the plasma samples from the total triacylglycerol concentration derived the true triacylglycerol concentration."}, "Herg channel": {"target": "Herg channel (Homo sapiens, UniProt Q12809)", "sequence (Q12809 whole entry)": "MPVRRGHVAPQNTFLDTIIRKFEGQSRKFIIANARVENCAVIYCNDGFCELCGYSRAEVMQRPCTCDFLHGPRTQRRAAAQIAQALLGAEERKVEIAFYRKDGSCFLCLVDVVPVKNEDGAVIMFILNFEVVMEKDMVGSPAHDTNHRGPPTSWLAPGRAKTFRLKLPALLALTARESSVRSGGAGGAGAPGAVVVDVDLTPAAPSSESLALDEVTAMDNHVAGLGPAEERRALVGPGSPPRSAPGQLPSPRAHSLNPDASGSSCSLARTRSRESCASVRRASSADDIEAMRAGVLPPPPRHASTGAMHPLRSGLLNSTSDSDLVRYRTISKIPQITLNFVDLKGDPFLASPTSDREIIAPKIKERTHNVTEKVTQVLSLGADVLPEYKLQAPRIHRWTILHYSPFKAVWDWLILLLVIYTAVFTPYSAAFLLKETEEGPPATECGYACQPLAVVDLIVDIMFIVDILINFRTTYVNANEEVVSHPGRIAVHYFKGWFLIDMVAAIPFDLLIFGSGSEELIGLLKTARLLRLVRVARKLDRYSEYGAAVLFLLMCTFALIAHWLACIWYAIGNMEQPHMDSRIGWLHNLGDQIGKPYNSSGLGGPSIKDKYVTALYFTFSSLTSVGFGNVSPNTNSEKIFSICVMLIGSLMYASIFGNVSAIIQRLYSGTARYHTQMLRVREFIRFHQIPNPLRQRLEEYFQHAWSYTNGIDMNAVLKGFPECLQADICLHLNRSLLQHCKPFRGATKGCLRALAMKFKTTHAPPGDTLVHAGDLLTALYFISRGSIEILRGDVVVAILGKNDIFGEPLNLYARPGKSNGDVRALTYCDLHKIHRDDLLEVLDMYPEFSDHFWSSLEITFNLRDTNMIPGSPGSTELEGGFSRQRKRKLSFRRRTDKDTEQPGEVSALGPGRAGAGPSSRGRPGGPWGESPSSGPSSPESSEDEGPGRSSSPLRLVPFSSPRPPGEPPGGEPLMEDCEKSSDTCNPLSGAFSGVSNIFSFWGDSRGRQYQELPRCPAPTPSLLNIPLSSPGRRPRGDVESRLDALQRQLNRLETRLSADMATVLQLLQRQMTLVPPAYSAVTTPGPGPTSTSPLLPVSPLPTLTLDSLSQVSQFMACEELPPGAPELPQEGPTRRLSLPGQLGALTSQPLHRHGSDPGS", "experiment": "Herg channel affinity (statement only, no method)", "format": "binding", "conditions": "low risk of prolongation of the QT-interval expected"}, "[4]": {"conditions": "10 mg/kg po once daily for 28 days"}, "[5]": {"conditions": "30 mg/kg po once daily for 28 days"}, "[6]": {"conditions": "1 nM [3H]-CP 55,940, read-out: IC50"}},
  "note": "Read-outs that look alike come from different tables or passages of the source.",
  "data": [
    {"smiles": "O=C(NN1CCCCC1)C1=NN(c2ccc(Cl)cc2Cl)[C@H](c2ccc(Cl)cc2)C1", "note": "[Compound B, (S)-N-piperidinyl-5-(4-chlorophenyl)-1-(2,4-dichlorophenyl)-4,5-dihydro-1H-pyrazole-3-carboxamide]", "values": [
      {"measurement": "decrease of plasma leptin levels compared to the vehicle-treated control group", "setting": "Plasma leptin assay; [4]", "result": 13.7, "unit": "%"},
      {"measurement": "decrease of plasma leptin levels compared to the vehicle-treated control group", "setting": "Plasma leptin assay; [5]", "result": 26.2, "unit": "%"},
      {"measurement": "decrease of plasma NEFA levels compared to the vehicle-treated control group", "setting": "Plasma NEFA assay", "result": 24.4, "unit": "%"},
      {"measurement": "decrease in absolute body fat compared to the vehicle-treated control group", "setting": "[1]; [4]", "result": 26.2, "unit": "g"},
      {"measurement": "decrease in absolute body fat compared to the vehicle-treated control group", "setting": "[1]; [5]", "result": 11.1, "unit": "g"},
      {"measurement": "IC50", "setting": "rat CB1 receptors; [6]", "result": 813, "unit": "nM"},
      {"measurement": "% reduction of body weight compared to the control group on Day 29", "setting": "[2]; 10 mg/kg po once daily", "result": 4.0, "unit": "%"},
      {"measurement": "% reduction of body weight compared to the control group on Day 29", "setting": "[2]; 30 mg/kg po once daily", "result": 7.1, "unit": "%"},
      {"measurement": "reduction of plasma glycerol levels", "setting": "[3]", "result": 38.9, "unit": "%"},
      {"measurement": "reduction of plasma triacylglycerol concentrations", "setting": "[3]", "result": 52.1, "unit": "%"}
    ]},
    {"smiles": "O=C(NN1CCCCC1)C1=NN(c2ccc(Cl)cc2Cl)[C@@H](c2ccc(Cl)cc2)C1", "note": "[Compound A, (R)-N-piperidinyl-5-(4-chlorophenyl)-1-(2,4-dichlorophenyl)-4,5-dihydro-1H-pyrazole-3-carboxamide]", "values": [
      {"measurement": "Herg channel affinity", "setting": "Herg channel", "result": "relatively weak"},
      {"measurement": "IC50", "setting": "rat CB1 receptors; [6]", "result": 16.1, "unit": "nM"},
      {"measurement": "IC50", "setting": "rat CB1 receptors; 1 nM [3H]-CP 55,940, read-out: pIC50 (converted)", "result": 21.9, "unit": "nM"},
      {"measurement": "% reduction of body weight compared to the control group on Day 29", "setting": "[2]; 10 mg/kg po once daily", "result": 12.0, "unit": "%"},
      {"measurement": "% reduction of body weight compared to the control group on Day 29", "setting": "[2]; 30 mg/kg po once daily", "result": 19.0, "unit": "%"},
      {"measurement": "effect on plasma glycerol levels", "setting": "[3]; [4]", "result": "no significant effect"},
      {"measurement": "effect on plasma triacylglycerol concentrations", "setting": "[3]; [4]", "result": "no significant effect"},
      {"measurement": "reduction of plasma glycerol levels", "setting": "[3]", "result": 33.6, "unit": "%"},
      {"measurement": "reduction of plasma triacylglycerol concentrations", "setting": "[3]", "result": 42, "unit": "%"}
    ]}
  ]
}
